Measured values from patent US20240150370A1, “BICYCLIC PYRIDINE DERIVATIVE” (Sumitomo Pharma Co., Ltd., priority 0001, published 2024).
Counter-ions that a name gives are not always drawn.

What was measured:
[1] = target: human TAAR1 receptor (Homo sapiens (Human), UniProt Q96RJ0); assay: Evaluation of agonist activity on human TAAR1 receptor (cAMP assay); assay type: cell-based; settings: CHO, 0.5 h, cAMP in human TAAR1-expressing CHO cells, relative to 100 μM tyramine, read-out: TAAR1 agonist activity at each concentration (%); for activation at 0.1 µM: 100 nM; for activation at 1 µM: 1000 nM; for activation at 10 µM: 10000 nM
[2] = target: hERG channel (Homo sapiens (Human), UniProt Q12809); assay: Evaluation of hERG channel inhibitory activity (whole-cell patch clamp, hERG-CHO cells); assay type: cell-based; settings: autopatch clamp, read-out: hERG inhibition IC50
Sequence of hERG channel (Q12809 whole entry): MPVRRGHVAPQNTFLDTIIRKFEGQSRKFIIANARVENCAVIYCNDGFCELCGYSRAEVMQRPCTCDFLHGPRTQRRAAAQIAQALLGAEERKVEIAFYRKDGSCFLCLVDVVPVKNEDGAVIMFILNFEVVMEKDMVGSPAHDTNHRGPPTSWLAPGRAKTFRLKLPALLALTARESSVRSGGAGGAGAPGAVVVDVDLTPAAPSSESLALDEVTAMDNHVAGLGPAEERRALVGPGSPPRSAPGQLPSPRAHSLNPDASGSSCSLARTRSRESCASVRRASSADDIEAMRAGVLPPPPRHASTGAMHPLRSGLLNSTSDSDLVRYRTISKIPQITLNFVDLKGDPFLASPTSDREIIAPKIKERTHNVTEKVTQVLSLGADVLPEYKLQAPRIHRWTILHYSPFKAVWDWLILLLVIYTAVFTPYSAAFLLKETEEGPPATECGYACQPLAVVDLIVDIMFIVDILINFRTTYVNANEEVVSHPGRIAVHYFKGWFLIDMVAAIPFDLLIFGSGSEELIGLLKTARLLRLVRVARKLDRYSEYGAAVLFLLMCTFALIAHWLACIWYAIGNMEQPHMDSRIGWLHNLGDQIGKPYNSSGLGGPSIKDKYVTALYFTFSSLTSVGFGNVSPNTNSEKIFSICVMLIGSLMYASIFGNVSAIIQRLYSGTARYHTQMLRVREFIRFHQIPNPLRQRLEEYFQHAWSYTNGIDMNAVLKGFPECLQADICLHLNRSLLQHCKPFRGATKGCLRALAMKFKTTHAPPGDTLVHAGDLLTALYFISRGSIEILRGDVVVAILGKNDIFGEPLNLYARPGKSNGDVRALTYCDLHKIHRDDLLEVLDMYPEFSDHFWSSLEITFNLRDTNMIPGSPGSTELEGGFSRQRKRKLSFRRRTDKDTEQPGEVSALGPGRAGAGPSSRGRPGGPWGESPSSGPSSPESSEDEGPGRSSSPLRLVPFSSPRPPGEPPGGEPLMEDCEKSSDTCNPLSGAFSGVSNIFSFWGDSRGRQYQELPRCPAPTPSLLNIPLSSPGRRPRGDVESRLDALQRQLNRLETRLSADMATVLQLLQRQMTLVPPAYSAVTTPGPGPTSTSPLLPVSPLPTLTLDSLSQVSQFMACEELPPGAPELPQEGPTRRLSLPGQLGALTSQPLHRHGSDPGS

Sequence of human TAAR1 receptor (Q96RJ0 whole entry, the tested form may be a part): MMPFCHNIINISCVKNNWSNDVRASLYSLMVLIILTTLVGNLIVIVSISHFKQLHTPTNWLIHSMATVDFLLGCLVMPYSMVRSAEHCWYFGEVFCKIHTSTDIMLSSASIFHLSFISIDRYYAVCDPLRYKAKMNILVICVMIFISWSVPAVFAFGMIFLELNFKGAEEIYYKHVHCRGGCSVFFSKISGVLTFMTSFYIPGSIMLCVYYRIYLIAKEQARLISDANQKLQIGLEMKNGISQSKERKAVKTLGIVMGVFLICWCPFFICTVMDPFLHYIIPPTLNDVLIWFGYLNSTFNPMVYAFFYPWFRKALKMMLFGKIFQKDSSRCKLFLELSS

Row | Compound | activation at 0.1 µM [1] | activation at 1 µM [1] | activation at 10 µM [1] | IC50 [2]
1 | CNC[C@H]1c2ncccc2O[C@@H]1C [Example 46, N-methyl-1-[(2R,3S)-2-methyl-2,3-dihydrofuro[3,2-b]pyridin-3-yl]methanamine dihydrochloride] | 31% | 70% | 80% | > 100 µM
2 | CNC[C@@H]1C[C@@H](C)Oc2ccc(C)nc21 [Example 47] | 13% | 52% | 84% | > 100 µM
3 | CNC[C@H]1c2nc(C)ccc2O[C@@H]1C [Example 48] | 38% | 74% | 86% | > 100 µM
4 | CNC[C@H]1c2ncc(F)cc2O[C@@H]1C [Example 49, 1-[(2R,3S)-6-fluoro-2-methyl-2,3-dihydrofuro[3,2-b]pyridin-3-yl]-N-methylmethanamine dihydrobromide] | 25% | 63% | 75% | > 100 µM
5 | CNC[C@H]1c2ncc(Cl)cc2O[C@@H]1C [Example 50] | 12% | 45% | 63% | > 100 µM
6 | CNC[C@H]1c2nccc(C)c2O[C@@H]1C [Example 51] | 10% | 46% | 77% | > 100 µM
7 | NCC1c2ncccc2OC12CC2 (stereo not shown) [Example 58] | 36% | 74% | 82% | > 100 µM
8 | CNCC1c2nc(C)ccc2OC1(C)C (stereo not shown) [Example 79] | 36% | 77% | 90% | > 100 µM
9 | Cc1ccc2c(n1)C(CN)C(C)(C)O2 (stereo not shown) [Example 83] | 59% | 91% | 99% | > 100 µM
10 | Cc1cc(C)c2c(n1)[C@H](CN)[C@@H](C)O2 [Example 84] | 15% | 51% | 79% | > 100 µM
